Data reported in PubChem BioAssay AID1963450 (Molecular Pharmacology Branch, DTP, NCI, 2024).

Tested on: 556581-035-R-J1-PDC complex spheroid growth
Experiment: Anticancer human tumor 556581-035-R-J1-PDC patient-derived ovarian carcinoma cell line growth inhibition [Asc]
Conditions: for IC50: curve of first compound; for viability, T/C: stronger effect = lower value
Method: Multicellular complex tumor spheroid response to apoptosis pathway targeting inhibitors Alrizomadlin, Pelcitoclax, and Dasminapant in combination with a variety of drugs and investigational agents in selected tumor cell lines
The MDM2 inhibitor alrizomadlin, the Bcl-2/Bcl-xL inhibitor pelcitoclax, and the IAPs inhibitor dasminapant were evaluated both individually and in combination with standard of care and investigational anticancer small molecules within a complex spheroid model of solid tumors. . Complex spheroids include a stromal component modeled by human endothelial cells (HUVEC) and fibroblasts modeled by human mesenchymal stem cells (MSCs). The concentration ranges selected for each drug and investigational agent were based upon clinically achievable concentrations if the clinical Cmax of the agent was known.
Compounds. The drugs and investigational agents: alrizomadlin (APG-115; NSC831270), pelcitoclax (APG-1252; NSC835773), dasminapant (APG-1387;NSC834197), TAK-243 (NSC785004), copanlisib (NSC809693), olaparib (NSC753686), talazoparib (NSC767125), cobimetinib (NSC 768068), eltanexor (KPT-8602, NSC 794443), abemaciclib (NSC 768073), sotorasib (NSC818433), adagrasib (NSC 831453), MRTX-1133 (NSC 836407), Iadademestat (ORY1001, NSC 806812), and RMC-4630 (NSC839698), were obtained from the NCI Developmental Therapeutics Program Chemical Repository. The FDA-approved anticancer drug set is available from the Developmental Therapeutics Program at https://dtp.cancer.gov/organization/dscb/obtaining/available plates.htm. […] The stock solutions were prepared in dimethyl sulfoxide (DMSO, Sigma-Aldrich, St. Louis, MO, cat. D2650) at 800-fold the tested concentration and stored at -70 degrees C prior to their use. All drugs and investigational agents were tested over a range starting from a high concentration at or near the clinical Cmax and decreasing in half-log increments. If the clinical Cmax for an agent had not been determined, the highest concentration tested was 10 microM.
The patient-derived cancer (PDC) cell lines include five colon adenocarcinomas: 186277-243-T-J2-PDC, 616215-338-R-J1-PDC, 439559-082-T-J2-PDC, 463943-066-T-J2-PDC, and 519858-162-T-J1-PDC; three pancreatic carcinomas: 323965-272-R-J2-PDC, 521955-158-R6-J3-PDC, and 521955-158-R2-J5-PDC; two uterine sarcomas: 327498-152-R-J2-PDC and 993429-296-R-J1-PDC; two rhabdomyosarcomas: 755483-174-R-J1-PDC and 772245-204-R-J1-PDC; two soft tissue sarcomas: 126254-015-R-J1-PDC and 494315-158-R-J1-PDC; two malignant fibrous histiocytomas: 317291-083-R-J1-PDC and 596521-263-R-J1-PDC; two breast carcinomas: 171881-019-R-J1-PDC and 885512-296-R-J2-PDC; and one ovarian carcinoma: 6556581-035-R-J-PDC were obtained from the NCI PDMR, (https://pdmr.cancer.gov). The established cell lines HSSY-2 synovial sarcoma (RRID:CVCL 8719), SYO-1 synovial sarcoma (RRID:CVCL_7146), MPNST malignant peripheral neural sheath tumor were obtained from the Sloan Kettering Institute. The following established cell lines were purchased from the American Type Culture Collection (ATCC, Manassas, VA), Sor the received from the NCI repository:, PANC-1 pancreatic carcinoma (CRL-1469, RRID:CVCL_0480), OVCAR-5 ovarian carcinoma (RRID:CVCL_1628), OVCAR-8 ovarian carcinoma (RRID:CVCL_1629), , MCF-7 breast carcinoma (CRL-12584, RRID:CVCL_0031), MDA-MB-231 breast carcinoma (CRL-12532, RRID:CVCL_0062), NCI-H1876 small cell lung carcinoma (CRL-5902, RRID:CVCL_1503), NCI-H510A small cell lung carcinoma (HTB-184, RRID:CVCL_1565), NCI-H1417 (CRL-5869, RRID:CVCL_1469), and NCI-H196 small cell lung carcinoma (CRL-5823, RRID:CVCL_1509). Dr. Peter Houghton (Greehey Children's Cancer Research Institute, University of Texas Health Science Center, San Antonio, TX) provided Rh-18 rhabdomyosarcoma (RRID:CVCL_1659). Pooled donor human umbilical vein endothelial cells (HUVEC, Lonza, cat. CC-2519) and human mesenchymal stem cells (hMSC, Lonza, cat. PT-2501) were purchased from Lonza (Walkersville, MD).
Cell Culture. […]
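Note: spheroids exposed to agents for 7 days before viability read.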

For `NC1CCC(NC2CC2c2ccccc2)CC1` (stereo not given) + CCN1C(C(=O)NC23CCC(C(=O)O)(CC2)CC3)C(c2cccc(Cl)c2F)C2(C(=O)Nc3cc(Cl)ccc32)C12CCCCC2, the IC50 (second compound 0.03 µM) was over 100 nM, the IC50 (second compound 0.0949 µM) was over 100 nM and the IC50 (second compound 0.3 µM) was over 100 nM. For the same compound, the IC50 (second compound 0.949 µM) was over 100 nM, the IC50 (second compound 3 µM) was over 100 nM and the viability, T/C (second compound 0.03 µM, first compound 0.000316 µM) was 105%. The viability, T/C (second compound 0.03 µM, first compound 0.001 µM) was 103%, the viability, T/C (second compound 0.03 µM, first compound 0.00316 µM) was 107% and the viability, T/C (second compound 0.03 µM, first compound 0.01 µM) was 98.7%. It also gave a viability, T/C (second compound 0.03 µM, first compound 0.0316 µM) of 97.7%, a viability, T/C (second compound 0.03 µM, first compound 0.1 µM) of 84.5% and a viability, T/C (second compound 0.0949 µM, first compound 0.000316 µM) of 113%. The viability, T/C (second compound 0.0949 µM, first compound 0.001 µM) was 105%, the viability, T/C (second compound 0.0949 µM, first compound 0.00316 µM) was 100% and the viability, T/C (second compound 0.0949 µM, first compound 0.01 µM) was 93%. It also gave a viability, T/C (second compound 0.0949 µM, first compound 0.0316 µM) of 107%, a viability, T/C (second compound 0.0949 µM, first compound 0.1 µM) of 103% and a viability, T/C (second compound 0.3 µM, first compound 0.000316 µM) of 108%. For the same compound, the viability, T/C (second compound 0.3 µM, first compound 0.001 µM) was 100%, the viability, T/C (second compound 0.3 µM, first compound 0.00316 µM) was 105% and the viability, T/C (second compound 0.3 µM, first compound 0.01 µM) was 100%. The viability, T/C (second compound 0.3 µM, first compound 0.0316 µM) was 97.7%, the viability, T/C (second compound 0.3 µM, first compound 0.1 µM) was 96.6% and the viability, T/C (second compound 0.949 µM, first compound 0.000316 µM) was 107%. It also gave a viability, T/C (second compound 0.949 µM, first compound 0.001 µM) of 92.1%, a viability, T/C (second compound 0.949 µM, first compound 0.00316 µM) of 82.9% and a viability, T/C (second compound 0.949 µM, first compound 0.01 µM) of 106%. It also gave a viability, T/C (second compound 0.949 µM, first compound 0.0316 µM) of 95.2%, a viability, T/C (second compound 0.949 µM, first compound 0.1 µM) of 96.5% and a viability, T/C (second compound 3 µM, first compound 0.000316 µM) of 85.7%. It also gave a viability, T/C (second compound 3 µM, first compound 0.001 µM) of 101%, a viability, T/C (second compound 3 µM, first compound 0.00316 µM) of 89.1% and a viability, T/C (second compound 3 µM, first compound 0.01 µM) of 85.1%. For the same compound, the viability, T/C (second compound 3 µM, first compound 0.0316 µM) was 92.8% and the viability, T/C (second compound 3 µM, first compound 0.1 µM) was 92.7%.
